In ChEMBL document CHEMBL1201862, “PubChem BioAssay data set” (2004):
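The compound was tested at five concentrations on cells cultured in 96-well plates, with a 48-hour exposure period. Abbreviation: GI50, concentration required for 50% inhibition of growth.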 The source made the active and inactive calls. Rule as the data show it: active = GI50 up to about 1.1 µM and inactive = higher.

Key:
Assay in all cases: inhibition of tumour cell growth, NCI panel, 48 h
MDA-MB-435 = test system: MDA-MB-435
CAKI-1 = test system: CAKI-1
K562 = test system: K562
SK-MEL-28 = test system: SK-MEL-28
SR = test system: SR
DU-145 = test system: DU-145
MDA-N = test system: MDA-N
U-251 = test system: U-251
HOP-92 = test system: HOP-92
T47D = test system: T47D
HCC 2998 = test system: HCC 2998
OVCAR-3 = test system: OVCAR-3
SNB-19 = test system: SNB-19
SW-620 = test system: SW-620
TK-10 = test system: TK-10
RXF 393 = test system: RXF 393
HCT-15 = test system: HCT-15
MCF7 = test system: MCF7
RPMI-8226 = test system: RPMI-8226
LOX IMVI = test system: LOX IMVI
NCI-H460 = test system: NCI-H460
786-0 = test system: 786-0
NCI-H522 = test system: NCI-H522
PC-3 = test system: PC-3
MOLT-4 = test system: MOLT-4
EKVX = test system: EKVX
BT-549 = test system: BT-549
HCT-116 = test system: HCT-116
UACC-257 = test system: UACC-257
SK-OV-3 = test system: SK-OV-3
OVCAR-4 = test system: OVCAR-4
SF-295 = test system: SF-295
IGROV-1 = test system: IGROV-1
ACHN = test system: ACHN
SF-539 = test system: SF-539
NCI-H226 = test system: NCI-H226
SK-MEL-2 = test system: SK-MEL-2
SK-MEL-5 = test system: SK-MEL-5
NCI-H23 = test system: NCI-H23
COLO 205 = test system: COLO 205
OVCAR-5 = test system: OVCAR-5
A549 = test system: A549
A498 = test system: A498
UACC-62 = test system: UACC-62
CCRF-CEM = test system: CCRF-CEM
MDA-MB-231 = test system: MDA-MB-231
HT-29 = test system: HT-29
HL-60 = test system: HL-60
M14 = test system: M14
NCI/ADR-RES = test system: NCI/ADR-RES
Hs-578T = test system: Hs-578T
HOP-62 = test system: HOP-62
SF-268 = test system: SF-268
Malme-3M = test system: Malme-3M
OVCAR-8 = test system: OVCAR-8
SN12C = test system: SN12C
KM12 = test system: KM12
UO-31 = test system: UO-31
SNB-75 = test system: SNB-75

Measured: GI50

COc1cc2c(cc1OC)C(=O)N(c1ccc(O)cc1)C2=O
> 100 µM: HCT-15
inactive: MDA-MB-435 > 100 µM | CAKI-1 > 100 µM | K562 > 100 µM | SK-MEL-28 > 100 µM | SR > 100 µM | DU-145 > 100 µM | MDA-N > 100 µM | U-251 > 100 µM | HOP-92 > 100 µM | T47D > 100 µM | HCC 2998 > 100 µM | OVCAR-3 > 100 µM | SNB-19 > 100 µM | SW-620 > 100 µM | TK-10 > 100 µM | RXF 393 > 100 µM | RPMI-8226 > 100 µM | LOX IMVI > 100 µM | NCI-H460 > 100 µM | 786-0 > 100 µM | NCI-H522 > 100 µM | PC-3 > 100 µM | MOLT-4 > 100 µM | EKVX > 100 µM | BT-549 > 100 µM | HCT-116 > 100 µM | UACC-257 > 100 µM | SK-OV-3 > 100 µM | OVCAR-4 > 100 µM | SF-295 > 100 µM | IGROV-1 > 100 µM | ACHN > 100 µM | SF-539 > 100 µM | NCI-H226 > 100 µM | SK-MEL-2 > 100 µM | SK-MEL-5 > 100 µM | NCI-H23 > 100 µM | COLO 205 > 100 µM | OVCAR-5 > 100 µM | A549 > 100 µM | A498 > 100 µM | UACC-62 > 100 µM | CCRF-CEM > 100 µM | MDA-MB-231 > 100 µM | HT-29 > 100 µM | HL-60 > 100 µM | M14 > 100 µM | NCI/ADR-RES > 100 µM | Hs-578T > 100 µM | HOP-62 > 100 µM | SF-268 > 100 µM | Malme-3M > 100 µM | OVCAR-8 > 100 µM | SN12C > 100 µM
active: MCF7 < 0.01 µM

COc1cc(C2S/C(=C/c3ccccc3)C(=O)N2c2ccc(Cl)c(Cl)c2)cc(OC)c1OC (configuration not stated)
18.7 µM: HCT-15
active: UACC-62 0.78 µM
inactive: MDA-MB-435 7.29 µM | CAKI-1 > 70.8 µM | K562 15.2 µM | SK-MEL-28 17.1 µM | SR 26 µM | DU-145 38.7 µM | MDA-N 19.8 µM | U-251 38.7 µM | HOP-92 32.9 µM | T47D > 100 µM | HCC 2998 58.9 µM | OVCAR-3 > 57.1 µM | SNB-19 59.2 µM | SW-620 31 µM | KM12 18.1 µM | TK-10 > 100 µM | RXF 393 > 51.8 µM | MCF7 22.3 µM | RPMI-8226 46.3 µM | LOX IMVI 19.2 µM | NCI-H460 30.7 µM | 786-0 70.6 µM | NCI-H522 14.1 µM | PC-3 20.5 µM | MOLT-4 28.8 µM | EKVX 23.1 µM | BT-549 42.3 µM | HCT-116 19.3 µM | UO-31 33.3 µM | UACC-257 > 70.6 µM | SK-OV-3 > 91 µM | OVCAR-4 60.8 µM | SF-295 15.8 µM | IGROV-1 22.5 µM | ACHN 18.7 µM | NCI-H226 29.4 µM | SK-MEL-2 12.6 µM | SK-MEL-5 30.1 µM | NCI-H23 48.9 µM | COLO 205 46.6 µM | OVCAR-5 10.1 µM | A549 53.8 µM | A498 > 42.4 µM | CCRF-CEM 1.36 µM | MDA-MB-231 > 50.8 µM | HT-29 55.5 µM | HL-60 15.7 µM | M14 28.8 µM | NCI/ADR-RES 32.6 µM | Hs-578T 15 µM | HOP-62 47.3 µM | SF-268 11.7 µM | Malme-3M 42 µM | OVCAR-8 > 72.3 µM | SN12C > 61.4 µM

CC1=NN(c2cccc(Cl)c2)C2(C1=C/C=C/c1ccccc1)C(Cl)C(=O)N2c1nc2ccccc2s1 (configuration not stated)
inactive: MDA-MB-435 24.6 µM | CAKI-1 9.4 µM | K562 6.14 µM | SK-MEL-28 26.2 µM | SR 1.51 µM | DU-145 9.33 µM | MDA-N 26.8 µM | U-251 6.92 µM | HOP-92 19.5 µM | T47D 15.8 µM | HCC 2998 25.1 µM | OVCAR-3 24.7 µM | SNB-19 60.8 µM | SW-620 18.9 µM | KM12 23.8 µM | TK-10 53 µM | RXF 393 23.1 µM | MCF7 9.14 µM | RPMI-8226 4.43 µM | LOX IMVI 13.1 µM | NCI-H460 5.42 µM | 786-0 11.7 µM | NCI-H522 14.8 µM | PC-3 19.3 µM | MOLT-4 1.53 µM | EKVX 40.2 µM | BT-549 32.1 µM | HCT-116 19.3 µM | UO-31 21.4 µM | UACC-257 36.7 µM | SK-OV-3 29 µM | OVCAR-4 35.7 µM | SF-295 11 µM | IGROV-1 27.5 µM | ACHN 4.76 µM | SF-539 19.2 µM | NCI-H226 27.4 µM | SK-MEL-2 18.7 µM | SK-MEL-5 22.9 µM | NCI-H23 16.9 µM | COLO 205 62.7 µM | OVCAR-5 34.1 µM | A549 43 µM | A498 30.2 µM | UACC-62 31.5 µM | CCRF-CEM 8.05 µM | MDA-MB-231 22.3 µM | HT-29 25.7 µM | HL-60 3.08 µM | M14 23 µM | NCI/ADR-RES 40.5 µM | Hs-578T 21 µM | HOP-62 27.9 µM | SF-268 7.74 µM | Malme-3M 39 µM | OVCAR-8 17.9 µM | SN12C 34.6 µM
29.6 µM: HCT-15

Cc1nc2c(sc(=S)n2-c2ccccc2)c2nc3ncccc3n12
inactive: MDA-MB-435 > 100 µM | CAKI-1 > 100 µM | K562 > 100 µM | SK-MEL-28 > 100 µM | SR > 100 µM | DU-145 > 100 µM | MDA-N > 100 µM | U-251 32.6 µM | HOP-92 > 100 µM | T47D > 100 µM | HCC 2998 > 100 µM | OVCAR-3 > 100 µM | SNB-19 54.5 µM | SW-620 > 100 µM | KM12 > 100 µM | TK-10 33.7 µM | RXF 393 34.8 µM | MCF7 > 100 µM | RPMI-8226 > 100 µM | LOX IMVI > 100 µM | NCI-H460 > 100 µM | 786-0 35.2 µM | NCI-H522 > 100 µM | PC-3 > 100 µM | MOLT-4 > 100 µM | EKVX > 100 µM | BT-549 > 100 µM | HCT-116 > 100 µM | SNB-75 23.6 µM | UO-31 > 100 µM | UACC-257 > 100 µM | SK-OV-3 33 µM | SF-295 77.4 µM | IGROV-1 > 100 µM | ACHN > 100 µM | SK-MEL-2 65.8 µM | SK-MEL-5 > 100 µM | NCI-H23 > 100 µM | COLO 205 > 100 µM | OVCAR-5 > 100 µM | A549 > 100 µM | A498 > 100 µM | UACC-62 > 100 µM | CCRF-CEM > 100 µM | MDA-MB-231 45.1 µM | HT-29 > 100 µM | HL-60 > 100 µM | M14 > 100 µM | NCI/ADR-RES > 100 µM | Hs-578T > 100 µM | HOP-62 25 µM | SF-268 66.7 µM | Malme-3M > 100 µM | OVCAR-8 > 100 µM | SN12C 46.2 µM
> 100 µM: HCT-15
